# Source: PMC5218480 (PLoS ONE, 2017)
# Test system: MV-4-11 cells
# Test: Gene expression microarray analysis (Affymetrix PrimeView) and GSEA
# Assay type: cell-based, human
# Design: RFU PODN (11730768_x_at) / Fold change /veh PODN (11730768_x_at) / RFU LINC00158 (11744669_a_at) / Fold change /veh LINC00158 (11744669_a_at) / RFU DUSP10 (11751237_a_at) / Fold change /veh DUSP10 (11751237_a_at) / RFU ID3 (11757404_x_at) / Fold change /veh ID3 (11757404_x_at) / RFU PLEKHG5 (11737974_s_at) / Fold change /veh PLEKHG5 (11737974_s_at) / RFU LRRC4B (11730491_at) / Fold change /veh LRRC4B (11730491_at) / RFU GIMAP4 (11747438_a_at) / Fold change /veh GIMAP4 (11747438_a_at) / RFU KRT8 (11758183_x_at) / Fold change /veh KRT8 (11758183_x_at) / RFU CNN1 (11734310_a_at) / Fold change /veh CNN1 (11734310_a_at) / RFU VPS37D (11726825_at) / Fold change /veh VPS37D (11726825_at) / RFU C10orf10 (11716522_x_at) / Fold change /veh C10orf10 (11716522_x_at) / RFU KIR2DL2 /// KIR2DL4 /// KIR2DL5A /// KIR2DL5B /// KIR2DS1 /// KIR2DS2 /// KIR2DS3 /// KIR2DS4 /// KIR3DL3 /// KIR3DL3 /// KIR3DS1 (11738374_at) / Fold change /veh KIR2DL2 /// KIR2DL4 /// KIR2DL5A /// KIR2DL5B /// KIR2DS1 /// KIR2DS2 /// KIR2DS3 /// KIR2DS4 /// KIR3DL3 /// KIR3DL3 /// KIR3DS1 (11738374_at) / RFU C1QL1 (11718748_at) / Fold change /veh C1QL1 (11718748_at) / RFU TMPRSS4 (11747572_a_at) / Fold change /veh TMPRSS4 (11747572_a_at) / RFU HAMP (11756126_x_at) / Fold change /veh HAMP (11756126_x_at) / RFU RNFT2 (11725882_a_at) / Fold change /veh RNFT2 (11725882_a_at) / RFU NR4A2 (11747474_a_at) / Fold change /veh NR4A2 (11747474_a_at) / RFU ABCC12 (11746883_a_at) / Fold change /veh ABCC12 (11746883_a_at) / RFU TMEM136 (11760407_x_at) / Fold change /veh TMEM136 (11760407_x_at) / RFU CLDN22 /// WWC2 (11732394_at) / Fold change /veh CLDN22 /// WWC2 (11732394_at) / RFU HLA-DPB1 (11760878_x_at) / Fold change /veh HLA-DPB1 (11760878_x_at) / RFU SPINT1 (11716480_a_at) / Fold change /veh SPINT1 (11716480_a_at) / RFU GAP43 (11754022_s_at) / Fold change /veh GAP43 (11754022_s_at) / RFU A4GNT (11735810_at) / Fold change /veh A4GNT (11735810_at) / RFU PRB3 (11715151_x_at) / Fold change /veh PRB3 (11715151_x_at) / RFU TUBB4B (11761932_at) / Fold change /veh TUBB4B (11761932_at) / RFU CAPN14 (11732068_a_at) / Fold change /veh CAPN14 (11732068_a_at) / RFU TMCC2 (11721928_a_at) / Fold change /veh TMCC2 (11721928_a_at) / RFU IRGQ (11745062_a_at) / Fold change /veh IRGQ (11745062_a_at) / RFU FAM174B (11720279_a_at) / Fold change /veh FAM174B (11720279_a_at) / RFU TMPRSS4 (11748680_a_at) / Fold change /veh TMPRSS4 (11748680_a_at) / RFU FAM212B (11763350_a_at) / Fold change /veh FAM212B (11763350_a_at) / RFU PLEKHG5 (11743358_a_at) / Fold change /veh PLEKHG5 (11743358_a_at) / RFU ZSCAN30 (11745921_a_at) / Fold change /veh ZSCAN30 (11745921_a_at) / RFU CMKLR1 (11741424_a_at) / Fold change /veh CMKLR1 (11741424_a_at) / RFU LOC101060620 /// MAPK8IP1 (11723275_at) / Fold change /veh LOC101060620 /// MAPK8IP1 (11723275_at) / RFU SPTSSB (11747773_x_at) / Fold change /veh SPTSSB (11747773_x_at) / RFU PRSS12 (11739890_at) / Fold change /veh PRSS12 (11739890_at) / RFU BIN1 (11741810_x_at) / Fold change /veh BIN1 (11741810_x_at) / RFU WNT11 (11732464_a_at) / Fold change /veh WNT11 (11732464_a_at) / RFU C10orf10 (11716521_a_at) / Fold change /veh C10orf10 (11716521_a_at) / RFU C5orf56 (11738089_at) / Fold change /veh C5orf56 (11738089_at) / RFU CYB561 (11721691_x_at) / Fold change /veh CYB561 (11721691_x_at) / RFU ANKRD19P (11752326_a_at) / Fold change /veh ANKRD19P (11752326_a_at) / RFU OR2T12 /// OR2T33 /// OR2T8 (11738714_s_at) / Fold change /veh OR2T12 /// OR2T33 /// OR2T8 (11738714_s_at) / RFU VCAN (11748164_a_at) / Fold change /veh VCAN (11748164_a_at) / RFU JSRP1 (11732532_at) / Fold change /veh JSRP1 (11732532_at) / RFU KRTAP10-11 (11738290_x_at) / Fold change /veh KRTAP10-11 (11738290_x_at) / RFU MYO3A (11730013_a_at) / Fold change /veh MYO3A (11730013_a_at) / RFU EBF3 (11725865_a_at) / Fold change /veh EBF3 (11725865_a_at) / RFU CAMK2N1 (11719241_x_at) / Fold change /veh CAMK2N1 (11719241_x_at) / RFU C5orf56 (11738088_a_at) / Fold change /veh C5orf56 (11738088_a_at) / RFU OLFML3 (11715873_a_at) / Fold change /veh OLFML3 (11715873_a_at) / RFU LOC100653217 /// NTM (11731650_a_at) / Fold change /veh LOC100653217 /// NTM (11731650_a_at) / RFU MAPK11 (11762145_a_at) / Fold change /veh MAPK11 (11762145_a_at) / RFU FIZ1 (11724087_x_at) / Fold change /veh FIZ1 (11724087_x_at) / RFU OASL (11726364_x_at) / Fold change /veh OASL (11726364_x_at) / RFU SOX15 (11748057_x_at) / Fold change /veh SOX15 (11748057_x_at) / RFU CD79A (11719716_a_at) / Fold change /veh CD79A (11719716_a_at) / RFU HIST1H1D (11736915_at) / Fold change /veh HIST1H1D (11736915_at) / RFU CASKIN2 (11723855_a_at) / Fold change /veh CASKIN2 (11723855_a_at) / RFU LOC730098 (11760151_x_at) / Fold change /veh LOC730098 (11760151_x_at) / RFU OR4N2 (11742367_at) / Fold change /veh OR4N2 (11742367_at) / RFU PRRT2 (11749266_a_at) / Fold change /veh PRRT2 (11749266_a_at) / RFU SNX32 (11753110_a_at) / Fold change /veh SNX32 (11753110_a_at) / RFU CDHR5 (11726645_a_at) / Fold change /veh CDHR5 (11726645_a_at) / RFU RCAN1 (11760418_a_at) / Fold change /veh RCAN1 (11760418_a_at) / RFU FAM167A (11723789_a_at) / Fold change /veh FAM167A (11723789_a_at) / RFU FAM26E (11764081_at) / Fold change /veh FAM26E (11764081_at) / RFU ISYNA1 (11749810_s_at) / Fold change /veh ISYNA1 (11749810_s_at) / RFU ACY1 (11761880_at) / Fold change /veh ACY1 (11761880_at) / RFU 11764098_at / Fold change /veh 11764098_at / RFU SAMD14 (11745864_x_at) / Fold change /veh SAMD14 (11745864_x_at) / RFU NPB (11741838_a_at) / Fold change /veh NPB (11741838_a_at) / RFU TMPRSS6 (11731388_a_at) / Fold change /veh TMPRSS6 (11731388_a_at) / RFU KRTAP10-2 (11738614_at) / Fold change /veh KRTAP10-2 (11738614_at) / RFU ARHGAP8 /// PRR5-ARHGAP8 (11727945_x_at) / Fold change /veh ARHGAP8 /// PRR5-ARHGAP8 (11727945_x_at) / RFU KRTAP5-7 /// NADSYN1 (11734609_at) / Fold change /veh KRTAP5-7 /// NADSYN1 (11734609_at) / RFU RASL12 (11751679_a_at) / Fold change /veh RASL12 (11751679_a_at) / RFU CDKN2B (11736163_a_at) / Fold change /veh CDKN2B (11736163_a_at) / RFU PRF1 (11729649_at) / Fold change /veh PRF1 (11729649_at) / RFU, ZNF638 /// ZNF638-IT1 / Fold change vs veh, ZNF638 /// ZNF638-IT1 / RFU, PANK3 / Fold change vs veh, PANK3 / RFU, SH3YL1 / Fold change vs veh, SH3YL1 / RFU, ZEB2 / Fold change vs veh, ZEB2 / RFU, NRIP1 / Fold change vs veh, NRIP1 / RFU, PTTG1IP / Fold change vs veh, PTTG1IP / RFU, CAPN2 / Fold change vs veh, CAPN2 / RFU, MED14 / Fold change vs veh, MED14 / RFU, SNORA58 / Fold change vs veh, SNORA58 / RFU, C1orf63 / Fold change vs veh, C1orf63 / RFU, LRRFIP1 / Fold change vs veh, LRRFIP1 / RFU, NDUFAF7 / Fold change vs veh, NDUFAF7 / RFU, SLC12A2 / Fold change vs veh, SLC12A2 / RFU, IBTK / Fold change vs veh, IBTK / RFU, ESF1 / Fold change vs veh, ESF1 / Fold change vs veh, TMEM50B / RFU, TAOK1 / Fold change vs veh, TAOK1 / RFU, ACBD3 / Fold change vs veh, ACBD3 / RFU, TMA16 / Fold change vs veh, TMA16 / RFU, RWDD3 / Fold change vs veh, RWDD3 / RFU, BCAT1 / Fold change vs veh, BCAT1 / RFU, EDEM3 / Fold change vs veh, EDEM3 / RFU, TMEM33 / Fold change vs veh, TMEM33 / RFU, WDR75 / Fold change vs veh, WDR75 / RFU, AHCTF1 / Fold change vs veh, AHCTF1 / RFU, TFRC / Fold change vs veh, TFRC / RFU, ZDHHC17 / Fold change vs veh, ZDHHC17 / RFU, NOM1 / Fold change vs veh, NOM1 / RFU, ARL8B / Fold change vs veh, ARL8B / RFU, ZBTB11 / Fold change vs veh, ZBTB11 / RFU, TAMM41 / Fold change vs veh, TAMM41 / RFU, KIAA1704 /// LOC100996395 / Fold change vs veh, KIAA1704 /// LOC100996395 / RFU, ING1 / Fold change vs veh, ING1 / RFU, TRMT61B / Fold change vs veh, TRMT61B / RFU, FUBP3 / Fold change vs veh, FUBP3 / RFU, TP53 / Fold change vs veh, TP53 / RFU, TNKS2 / Fold change vs veh, TNKS2 / RFU, ZFP14 / Fold change vs veh, ZFP14 / RFU, ACTR2 / Fold change vs veh, ACTR2 / RFU, PPP3R1 / Fold change vs veh, PPP3R1 / RFU, PIK3R1 / Fold change vs veh, PIK3R1 / RFU, HNRNPA1 / Fold change vs veh, HNRNPA1 / RFU, RNF170 / Fold change vs veh, RNF170 / RFU, ZNF28 / Fold change vs veh, ZNF28 / RFU, RNGTT / Fold change vs veh, RNGTT / RFU, OGT / Fold change vs veh, OGT / RFU, BRD1 / Fold change vs veh, BRD1 / RFU, MARS / Fold change vs veh, MARS / RFU, ZNF655 / Fold change vs veh, ZNF655 / RFU, FAHD1 / Fold change vs veh, FAHD1 / RFU, BDP1 / Fold change vs veh, BDP1 / RFU, LRRCC1 / Fold change vs veh, LRRCC1 / RFU, ARID1A / Fold change vs veh, ARID1A / RFU, ZNF146 / Fold change vs veh, ZNF146 / RFU, ZNF330 / Fold change vs veh, ZNF330 / RFU, GPN3 / Fold change vs veh, GPN3 / RFU, C9orf123 / Fold change vs veh, C9orf123 / RFU, N4BP2L2 / Fold change vs veh, N4BP2L2 / RFU, ARFIP1 / Fold change vs veh, ARFIP1 / RFU, FAM179B / Fold change vs veh, FAM179B / RFU, BCL10 / Fold change vs veh, BCL10 / RFU, UHRF1BP1L / Fold change vs veh, UHRF1BP1L / RFU, BET1 / Fold change vs veh, BET1 / RFU, CNOT2 / Fold change vs veh, CNOT2 / RFU, ZNF268 / Fold change vs veh, ZNF268 / Fold change vs veh, ZNF507 / RFU, DGCR2 / Fold change vs veh, DGCR2 / RFU, WDSUB1 / Fold change vs veh, WDSUB1 / Fold change vs veh, HSP90B1 /// MIR3652 / RFU, ADSS / Fold change vs veh, ADSS / RFU, GK / Fold change vs veh, GK / RFU, ZNF148 / Fold change vs veh, ZNF148 / RFU, TAF9 / Fold change vs veh, TAF9 / RFU, SLC1A5 / Fold change vs veh, SLC1A5 / RFU, SLMO2 / Fold change vs veh, SLMO2 / RFU, ABCC4 / Fold change vs veh, ABCC4 / RFU, LOC101060439 /// RAP1B / Fold change vs veh, LOC101060439 /// RAP1B / RFU, RFX7 / Fold change vs veh, RFX7 / RFU, GTPBP10 / Fold change vs veh, GTPBP10 / RFU, CNEP1R1 / Fold change vs veh, CNEP1R1 / RFU, BIVM-ERCC5 /// ERCC5 / Fold change vs veh, BIVM-ERCC5 /// ERCC5 / RFU, ILF3 / Fold change vs veh, ILF3 / RFU 11762660_at / Fold change /veh 11762660_at / RFU VCAN (11757783_s_at) / Fold change /veh VCAN (11757783_s_at) / RFU DDX43 (11728927_at) / Fold change /veh DDX43 (11728927_at) / RFU KRT8 (11758188_x_at) / Fold change /veh KRT8 (11758188_x_at) / RFU NKD1 (11759106_at) / Fold change /veh NKD1 (11759106_at) / RFU SRD5A1 (11742802_a_at) / Fold change /veh SRD5A1 (11742802_a_at) / RFU TPSAB1 /// TPSB2 (11721975_s_at) / Fold change /veh TPSAB1 /// TPSB2 (11721975_s_at) / RFU GSTM3 (11746129_a_at) / Fold change /veh GSTM3 (11746129_a_at) / RFU IL23R (11737362_x_at) / Fold change /veh IL23R (11737362_x_at) / RFU TMEM51 (11727254_a_at) / Fold change /veh TMEM51 (11727254_a_at) / RFU PIWIL2 (11732686_x_at) / Fold change /veh PIWIL2 (11732686_x_at) / RFU ORM1 (11744905_x_at) / Fold change /veh ORM1 (11744905_x_at) / RFU CCDC152 (11743942_at) / Fold change /veh CCDC152 (11743942_at) / RFU ECM1 (11717891_a_at) / Fold change /veh ECM1 (11717891_a_at) / RFU IL23R (11748794_a_at) / Fold change /veh IL23R (11748794_a_at) / RFU TNFAIP8L3 (11732012_x_at) / Fold change /veh TNFAIP8L3 (11732012_x_at) / RFU MBOAT4 (11741988_at) / Fold change /veh MBOAT4 (11741988_at) / RFU 11764193_at / Fold change /veh 11764193_at / RFU TMEM53 (11763286_at) / Fold change /veh TMEM53 (11763286_at) / RFU MAGEB2 (11727129_at) / Fold change /veh MAGEB2 (11727129_at) / RFU TMEM200A (11744735_a_at) / Fold change /veh TMEM200A (11744735_a_at) / RFU CCDC152 (11751479_a_at) / Fold change /veh CCDC152 (11751479_a_at) / RFU FAM211A (11726209_a_at) / Fold change /veh FAM211A (11726209_a_at) / RFU RGS16 (11746705_a_at) / Fold change /veh RGS16 (11746705_a_at) / RFU VCAN (11755009_s_at) / Fold change /veh VCAN (11755009_s_at) / RFU RHOB (11743442_s_at) / Fold change /veh RHOB (11743442_s_at) / RFU RGS16 (11720943_a_at) / Fold change /veh RGS16 (11720943_a_at) / RFU RGS16 (11720944_at) / Fold change /veh RGS16 (11720944_at) / RFU, VPS4B / Fold change vs veh, VPS4B / RFU, CREB1 / Fold change vs veh, CREB1 / RFU, DNAJC13 / Fold change vs veh, DNAJC13 / RFU, GNAQ / Fold change vs veh, GNAQ / RFU, CDK5R1 / Fold change vs veh, CDK5R1 / RFU, ZRANB3 / Fold change vs veh, ZRANB3 / RFU, CUL4A / Fold change vs veh, CUL4A / RFU, CCNY / Fold change vs veh, CCNY / RFU, UFL1 / Fold change vs veh, UFL1 / RFU, COG3 / Fold change vs veh, COG3 / RFU, DIAPH2 / Fold change vs veh, DIAPH2 / RFU, SKA2 / Fold change vs veh, SKA2 / RFU, AFF3 / Fold change vs veh, AFF3 / RFU, LMF1 / Fold change vs veh, LMF1 / RFU, IPO11 / Fold change vs veh, IPO11 / RFU, DFFB / Fold change vs veh, DFFB / RFU, FOXP1 / Fold change vs veh, FOXP1 / RFU, CARD8 / Fold change vs veh, CARD8 / RFU, STRN3 / Fold change vs veh, STRN3 / RFU, ADK / Fold change vs veh, ADK / RFU, RASSF2 / Fold change vs veh, RASSF2 / RFU, WIPF1 / Fold change vs veh, WIPF1 / RFU, LARP1B / Fold change vs veh, LARP1B / RFU, RASA1 / Fold change vs veh, RASA1 / RFU, RB1 / Fold change vs veh, RB1 / RFU, PPFIA1 / Fold change vs veh, PPFIA1 / RFU, MAT2A / Fold change vs veh, MAT2A / RFU, CCT5 / Fold change vs veh, CCT5 / RFU, WDR92 / Fold change vs veh, WDR92 / RFU, CUX1 / Fold change vs veh, CUX1 / RFU, TTC7A / Fold change vs veh, TTC7A / RFU, TMEM135 / Fold change vs veh, TMEM135 / RFU, DEPTOR / Fold change vs veh, DEPTOR / RFU, CPM / Fold change vs veh, CPM / RFU, DNAJB6 / Fold change vs veh, DNAJB6 / RFU, CACNA2D3 / Fold change vs veh, CACNA2D3 / RFU, DTX4 / Fold change vs veh, DTX4 / RFU, TFCP2 / Fold change vs veh, TFCP2 / RFU, GMCL1 /// GMCL1P1 / Fold change vs veh, GMCL1 /// GMCL1P1 / RFU, AEBP2 / Fold change vs veh, AEBP2 / RFU, SNHG1 /// SNORD22 /// SNORD25 /// SNORD26 /// SNORD27 /// SNORD28 /// SNORD29 /// SNORD31 / Fold change vs veh, SNHG1 /// SNORD22 /// SNORD25 /// SNORD26 /// SNORD27 /// SNORD28 /// SNORD29 /// SNORD31 / Fold change (Aza/veh), C12orf56 (ProbeSet 11735607_a_at) / Fold change (ACY-1035/veh), C12orf56 (ProbeSet 11735607_a_at) / Fold change (Aza/veh), FGFR1OP (ProbeSet 11751329_s_at) / Fold change (ACY-1035/veh), FGFR1OP (ProbeSet 11751329_s_at) / Fold change (Aza/veh), VPS36 (ProbeSet 11739960_a_at) / Fold change (ACY-1035/veh), VPS36 (ProbeSet 11739960_a_at) / RFU SYPL1 (11715823_x_at) / Fold change /veh SYPL1 (11715823_x_at) / RFU IGFBP7 (11715501_s_at) / Fold change /veh IGFBP7 (11715501_s_at) / RFU REEP3 (11722064_at) / Fold change /veh REEP3 (11722064_at) / RFU IGLL1 (11728026_x_at) / Fold change /veh IGLL1 (11728026_x_at): dose or concentration left out as unconfirmed
# Details: MV-4-11 cells, 48 hours
compound,measurement,value
Nc1ccc(-c2cccs2)cc1NC(=O)c1ccc2c(c1)cc(C1CC1)n2CCN1CCOCC1 [ACY-1035],RFU VCAN (11748164_a_at),5.33 RFU
